Laboratory results: US9487596B2, “Compound isolated from quamoclit, and composition for preventing or treating diabetes containing the compound as an active ingredient” (NANOBIOTECH CO., LTD., priority 2011, dated 2016)

Experiments:
[1] = test system: diabetic mouse; test: Insulin resistance (HOMA-IR) and β-cell functionality (HOMA-beta) in diabetic mice; type: in vivo; conditions: FIG. 14
Protocol: Insulin and blood glucose of the diabetic mouse group raised under conditions of Example 7 above were measured by the fasting blood test or glucose tolerance test and insulin sensitivity index thereof was calculated.
Insulin resistance was evaluated using the insulin sensitivity index which is homeostasis assessment (HOMA)-IR and β-cell Functionality was evaluated by HOMA-beta.
HOMA-IR=(Fasting insulin (μIU/mL)×Fasting glucose ([…]))/22.5 HOMA-beta=20×Fasting insulin (U/mL)/Fasting glucose (mmol/L)−3.5

[2] = test system: diabetic mouse; test: Anti-cataract effect: eye lens turbidity in diabetic mice; type: in vivo; conditions: FIG. 20
Protocol: Eye lens was isolated from eyeball extracted from the diabetic mouse group raised under conditions of Example 7 above and moved to a well plate and then a photograph thereof was taken by LAS 3000 image analysis system. Turbidity of the eye lens was measured by analyzing the photograph using LAS 300 image analysis program.

[3] = test system: TNF-α; test: TNF-α concentration in diabetic mice; type: in vivo, mouse; conditions: FIG. 19
Protocol: TNF-α concentration of the diabetic mouse group raised under conditions of Example 7 above was measured based on the above-description.

[4] = test system: glucagon; test: Plasma glucagon concentration in diabetic mice; type: in vivo, mouse
Source text: In type 2 diabetic patients, blood glucose is increased, insulin secretion by glucose intake is delayed, and glucagon is increased. It is generally known that decrease in a ratio of insulin to plasma glucagon is associated with deterioration of diabetes. Therefore, a concentration of glucagon of the diabetic mouse group raised under conditions of Example 7 above was confirmed.

[5] = target: T1, DPP-IV (Mus musculus, UniProt P28843); test: DPP-IV activity in diabetic mice; type: in vivo; conditions: FIG. 17
T1 construct: from tissue
T1 sequence (P28843 whole entry): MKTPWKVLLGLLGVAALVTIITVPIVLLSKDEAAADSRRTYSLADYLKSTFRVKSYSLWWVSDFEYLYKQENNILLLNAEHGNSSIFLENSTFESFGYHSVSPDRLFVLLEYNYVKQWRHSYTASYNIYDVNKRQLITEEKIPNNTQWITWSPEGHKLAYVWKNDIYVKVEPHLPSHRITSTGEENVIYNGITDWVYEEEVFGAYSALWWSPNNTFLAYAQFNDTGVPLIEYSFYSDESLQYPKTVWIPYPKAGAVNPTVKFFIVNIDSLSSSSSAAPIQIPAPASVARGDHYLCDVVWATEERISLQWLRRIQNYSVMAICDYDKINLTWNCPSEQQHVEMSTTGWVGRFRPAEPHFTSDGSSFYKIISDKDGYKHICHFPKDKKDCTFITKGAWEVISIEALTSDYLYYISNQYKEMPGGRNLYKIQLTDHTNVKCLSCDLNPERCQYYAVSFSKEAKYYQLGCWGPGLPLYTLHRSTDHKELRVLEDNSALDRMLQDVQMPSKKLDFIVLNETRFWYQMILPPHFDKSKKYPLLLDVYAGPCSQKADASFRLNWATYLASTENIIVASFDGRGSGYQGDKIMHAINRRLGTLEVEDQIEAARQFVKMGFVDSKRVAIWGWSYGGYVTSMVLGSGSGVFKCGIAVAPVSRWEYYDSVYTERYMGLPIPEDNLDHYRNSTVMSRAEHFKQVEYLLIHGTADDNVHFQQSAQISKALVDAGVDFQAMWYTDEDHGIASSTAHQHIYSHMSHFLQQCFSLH
Source text: Both of GIP and GLP-1 are rapidly decomposed by dipeptidyl peptidase (DPP)-4 which is a series of serine protease. DPP-4 inhibition efficacy of the diabetic mouse group raised under conditions of Example 7 above was confirmed based on the above description.

[6] = test system: C57BL/6J mouse; test: Oral glucose tolerance test in high-fat diet mice; type: in vivo; conditions: oral dosing 1, 2, 4, 8, 16, 24 hours before glucose 2 g/kg, result for the 24 hours group, FIG. 9
Protocol: In order to conduct an oral glucose tolerance test, a 5-week-old mouse (Male C57BL/6J, 19 g, Koatech, Pyeongtaek-si, Gyeonggi-do, Korea) was purchased and adopted under predetermined temperature (25° C.) and humidity (50%) for 1 week and used in an experiment. A general diet group having a general feed as a food and a high-fat diet group having a high-fat feed as a feed were prepared, wherein each group had five mice, and raised for 2 weeks. At the time of two weeks after feeding with high-fat diet, the experimental mice were fasting for 16 hours, and the fasting blood glucose was measured, and then, the sample was orally administered at 1, 2, 4, 8, 16, and 24 hours before measuring the blood glucose, followed by oral administration of glucose 2 g/kg (body weight) and blood glucose thereof was measured every 30 minutes.

[7] = test system: diabetic mouse; test: Liver function: bilirubin in blood of diabetic mice (ELISA); type: in vivo; conditions: blood after 12 weeks, FIG. 13
Protocol: In order to confirm whether or not liver function was normal in the group treated with Quamoclit angulata-derived novel compound, bilirubin value was measured using ELISA kit (Cusabio biotech, Japan) using blood collected in Example above. […] Therefore, it may be appreciated that the composition of the present invention is safe composition not causing abnormal liver function.

[8] = test system: adiponectin; test: Adiponectin concentration in blood of diabetic mice (ELISA); type: in vivo, mouse; conditions: FIG. 15
Source text: It has consistently proven that adiponectin is secreted from fat cells and abundantly present in blood, is decreased in an obesity patient or type 2 diabetic. In addition, low hypoadiponectinemia is on the rise as a new risk factor of artherosclerotic disease, and a concentration of adiponectin in diabetic patients, in particular, patients accompanying macrovascular complications is decreased. That is, adiponectin has an anti-obesity action, an anti-diabetic action, anti-atherogenic action and an inhibition action of active oxygen generation. A concentration of adiponectin in the blood of the diabetic mouse group raised under conditions of Example 7 was measured using ELISA kit (R&D, USA).

[9] = test system: C57BL/Ks DB/DB mouse; test: Blood glucose in diabetic mice; type: in vivo; conditions: oral, each of 0.1 mg/kg, 1 mg/kg and 10 mg/kg, 12 weeks, FIG. 8
Protocol: Normal mice and diabetic mice were treated with the Quamoclit angulata-derived novel compound and change in diabetic indexes including blood glucose, glycated hemoglobin, and urinary protein was confirmed.
6-week-old mice (Male C57BL/6J mouse, 20 g, Central Lab. Animal Inc., Seoul) and 6-week-old diabetic mice (Male C57BL/Ks DB/DB mouse, 20 g, Central Lab. Animal Inc., Seoul) were purchased and adopted under predetermined temperature (25° C.) and humidity (50%) for 1 week and used in an experiment.
(§1) A normal mouse control group, a diabetic mouse control group, a diabetic mouse group treated with drugs (glimepiride and acarbose), and a diabetic mouse group treated with Quamoclit angulata-derived novel compound were prepared, wherein each group had five mice, and each group treated with the combination administration of the Quamoclit angulata-derived novel compound was treated by oral administration at each concentration of 0.1 mg/kg, 1 mg/kg and 10 mg/kg and raised for 12 weeks. A change in blood glucose in mice of each group was measured every 2 weeks and urine was collected every 6 weeks to measure a urinary protein concentration, and mice was raised for 12 weeks and blood thereof was collected to measure glycated hemoglobin concentration.

[10] = test system: alpha-glucosidase; test: Alpha-glucosidase activity in diabetic mice; type: in vivo, mouse; conditions: FIG. 18
Protocol: Activity of alpha-glucosidase of the diabetic mouse group raised under conditions of Example 7 above was measured based on the above-description.

[11] = test system: VEGF protein; test: VEGF protein expression in ARPE 19 cells induced with 30 mM glucose (VEGF ELISA); type: cell-based, human; conditions: 0.5 μg/ml, 72 hours, FIG. 5
Protocol: In order to confirm inhibition activity of VEGF of the novel compound isolated from the Quamoclit angulata prepared in Example 1 above, ARPE 19 cell line which is human retinal pigment epithelium cell line was treated with the novel compound and expression of the VEGF protein inducting diabetic complications such as diabetic retinopathy, and the like was confirmed.
10% fetal bovine serum (FBS) was added to DMEM; F12 medium and ARPE 19 cell line (ATCC, USA) was cultured therein. In order to induce expression of the VEGF protein from ARPE 19 cell line, the cells were smeared on 60Φ plate at a concentration of 1×10^5 cell/plate, 10% FBS serum-free was added to DMEM low glucose medium, followed by culturing for 24 hours, the culture fluid was changed into a culture fluid containing 30 mM glucose in the DMEM low glucose medium, and the novel compound KRIBB-BH-P was added thereto so that a final concentration thereof was 0.5 μg/ml, followed by culturing for 72 hours in order to confirm production of VEGF protein. […]
The culture fluid of ARPE 19 cell cultured by the above-described method was obtained and an amount of the secreted VEGF was measured using VEGF ELISA kit (R&D, UK).

[12] = test system: diabetic mouse; test: Glycated hemoglobin (HbAlc) in diabetic mice (ELISA); type: in vivo; conditions: oral 10 mg/kg, compared to the normal mouse control group (so in the source), FIG. 10
Protocol: as §1
In order to decrease complications developed in patients receiving diabetes treatment, it is important to maintain blood glucose at an appropriate level. Since blood glucose measured at one time point may be changed by various factors, the most widely used test with a purpose of identifying a long-term change in regulation of blood glucose is glycated hemoglobin (HbAlc). […] Since the glycated hemoglobin reflects an average blood glucose value for 2 to 4 months, it is useful for identify a degree of regulation of blood glucose in a long term. […]

[13] = test system: diabetic mouse; test: Liver toxicity test: alanine transaminase in blood of diabetic mice; type: in vivo; conditions: oral 0.1-10 mg/kg, 12 weeks, FIG. 12
Protocol: A 6-week-old mouse and a 6-week-old diabetic mouse which are the same as Example 5 above were adapted under predetermined temperature (25° C.) and humidity (50%) for 1 week and used in a liver toxicity test.
A normal mouse control group, a diabetic mouse control group, and each diabetic mouse group treated with Quamoclit angulata-derived novel compound by oral administration at each concentration of 0.1 mg/kg, 1 mg/kg and 10 mg/kg were prepared, wherein each group had five mice, and raised for 12 week. After raising the mice for 12 weeks, blood thereof was collected and a concentration of alanine transaminase was measured.
The alanine transaminase, which is a metabolic enzyme of amino acid, is used in a representative test for diagnosis and result observation.
In order to confirm effects of the Quamoclit angulata-derived novel compound on liver, a normal mouse control group, a diabetic mouse control group and each group treated with Quamoclit angulata-derived novel compound by oral administration at each concentration of 0.1 mg/kg, 1 mg/kg and 10 mg/kg were raised for 12 weeks and blood thereof were collected and a change in alanine transaminase measured using ELISA kit (Cusabio biotech, Japan).

[14] = test system: Min 6 cell line; test: Insulin secretion in Min 6 pancreatic β cell line (insulin ELISA); type: cell-based, mouse; conditions: Min 6 cells, 25 mM glucose, 0.5 ng/ml, 2 hours, FIG. 6
Protocol: An insulin secretion acceleration activity of the novel compound KRIBB-BH-P isolated from Quamoclit angulata was confirmed in Min 6 cell line which is a mouse pancreatic β cell tumor.
15% FBS was added to HDMEM medium and Min 6(ATCC, USA) was cultured therein. In order to induce insulin expression from Min 6 cell line, the cells were smeared on a 96 well plate at a concentration of 1×10^4 cell/plate, 15% FBS serum-free was added to DMEM high glucose medium, followed by culturing for 72 hours, washing with PBS buffer solution, and then culturing in HBSS buffer solution for 2 hours, the culture fluid was changed into HBSS buffer solution having 25 mM glucose added thereto, and the novel compound KRIBB-BH-P was added thereto so that a final concentration thereof was 0.5 ng/ml, followed by culturing for 2 hours in order to confirm whether or not the insulin expression was promoted. Here, an amount of insulin expression in cell in which insulin expression was not induced by treatment with 5.5 mM glucose was set as a reference point which is a control group, and a positive control group was prepared by adding amino-guanidine of 1 μM, acarbose of 1 μM, glimepiride of 1 mM. […] The culture fluid of Min 6 cell cultured by the above-described method was obtained and an amount of the secreted insulin was measured using Insulin ELISA kit (R&D, UK).

[15] = test system: lens; test: Lens culture experiment, xylose-induced lens opacity; conditions: mouse lens, 20 mM xylose, compared to positive control quercetin, FIG. 7
Protocol: In the case of diabetic, a cataract is developed at an early stage, becomes rapidly worse and eyesight is rapidly deteriorated. Diabetes promotes opaque crystalline lens. Accordingly, diabetic cataract inhibition efficiency was examined by a lens culture experiment.
Eyes of a mouse was extracted and put into an iodine solution to be disinfected and then only the lens was extracted. The extracted eyes were put into M199 medium and cultured in a cell incubator. 20 mM xylose was added to the medium to induce lens opacity and the induced lens opacity was measured using CCD camera.

[16] = test system: diabetic model mouse; test: Creatinine in blood and urine of diabetic mice (ELISA); type: in vivo; conditions: oral, 12 weeks, FIG. 11
Source text: Diabetic patients are common to have both of kidney and heart complication. Diabetes may damage kidney which filters and excretes our body's waste. Through creatinine test, a concentration of creatinine in a blood may be measured and a function of kidney may be evaluated creatinine, which is a product obtained by dehydrating creatine produced after protein is used in muscle, is present in a blood with an extremely small amount. In the case in which a function of the kidney is deteriorated, creatinine may not be excreted. Urine and blood from diabetic model mouse of each group treated by oral administration for 12 weeks were collected, and creatinine was measured using ELISA kit (R&D, USA).

CCCCCC(CCCC(O)CC(=O)O)OC1OC(COC2OC(C)C(OC3CC(O)C(O)C(C)O3)CC2O)C(O)C(O)C1OC1CC(O)C(OC2CC(O)C(OC3CC(O)C(OC)C(C)O3)C(C)O2)C(C)O1 (stereo not shown) [KRIBB-BH-P]
insulin resistance (HOMA-IR) [1]: remarkably excellent result
β-cell functionality (HOMA-beta) [1]: remarkably excellent result
turbidity of the eye lens [2]: decreased
TNF-α concentration [3]: decreased
concentration ratio of insulin to glucagon ([4]; compared to the diabetic mouse control group): remarkably increased
concentration of plasma glucagon ([4]; lower than that of the group treated with the drugs, FIG. 16): remarkably decreased
activity of DPP IV [5]: inhibited
efficacy in oral glucose tolerance test (blood glucose) [6]: highest efficacy
bilirubin value [7]: included in a normal range
expression of adiponectin [8]: increased
blood glucose [9]: remarkably decreased
activity of alpha-glucosidase [10]: inhibited
VEGF expression [11]: decreased
glycated hemoglobin value [12]: remarkably decreased
liver toxicity [13]: no liver toxicity
insulin expression [14]: increased
lens opacity [15]: more inhibited
concentration of creatinine in the blood [16]: decreased
concentration of creatinine in the urine [16]: increased
